System: fibromyalgia patients
Assay: Clinical studies in fibromyalgia patients
Format: in vivo, human
Method: Pressure of approximate 4 kg/cm^2 is applied manually at multiple anatomic points of patients with fibromyalgia to evaluate pain and tenderness. A useful device for quantitating pain sensitivity is a pressure algometer or dolorimeter. […] Clinical studies are performed in fibromyalgia patients that have not responded to conventional physical therapy and have been present for at least one year. In one embodiment, thalidomide is administered in an amount of 100 to 400 mg per day to patients with fibromyalgia for from three months to one year. A baseline evaluation is performed for the effect of the drug treatment on pain intensity, impact of pain on activities of daily living, and consumption of other pain medications.

SMILES: O=C1CCC(N2C(=O)c3ccccc3C2=O)C(=O)N1 (racemic) [thalidomide, 2-(2,6-dioxo-3-piperidinyl)-1H-isoindole-1,3(2H)-dione]
- Tolerability of treatment (300 mg continuous oral daily dose): well-tolerated
- Analgesic effect in fibromyalgia (100 to 400 mg per day for three months to one year): analgesic benefit

Source: patent US20050119194A1, “Methods of using and compositions comprising thalidomide for treatment, modification and management of fibromyalgia” (priority 2003, published 2005)
